Measured values as given in patent publication US4532240A, “Diaminopyrimidines” (Warner-Lambert Company, priority 1983, dated 1985).
Where “and” joins values, the source holds several entries; their conditions need not be identical. Identical values can stand only once. Counter-ions that a name gives are not always drawn.

What was measured:
P388 Leukemia = assay: In vivo lymphocytic leukemia P388 test in mice; design: species or system CD2 F1 mice; settings: intraperitoneal, two single doses four days apart
Description: The in vivo lymphocytic leukemia P388 test is carried out using the test system of the United States National Cancer Institute. The animals used are either male or female CD2 F1 mice. There are six to seven animals per test group. The tumor transplant is by intraperitoneal injection of dilute ascitic fluid containing cells of lymphocytic leukemia P388. The test compounds are administered intraperitoneally in two single doses with a four-day interval between doses at various dose levels following tumor inoculation. The animals are weighed and survivors are recorded on a regular basis for 30 days. A ratio of survival time for treated (T)/control (C) animals is calculated. The criterion for efficacy is T/C×100>125%. The positive control compound in this test is 5-fluorouracil. See Cancer Chemotherapy Reports, Part 3, 3, 1 (1972) for a comprehensive discussion of the protocol.

L1210 cells = assay: In vitro antitumor screening on L1210 murine leukemia cell line (growth, Coulter counter); type: cell-based; settings: Mus musculus, L1210, 72 h; three days, 37° C., 5% CO2; read-out: L1210 Leukemia in vitro ID50
Description: L1210 cells, a murine leukemia cell line, were grown in RPMI 1640 supplemented with 5% fetal bovine serum and gentamicin (50 μg/ml).
Drug dilutions were prepared in the appropriate solvent and 20 μl of each dilution were added to 24-well Linbro tissue culture plates, followed by the addition of M 2.0 ml of cell suspension containing 3×10^4cells per ml. Solvent and medium controls were included in each test. After incubation at 37° C. for three days in 5% CO2, the contents of each well were removed and the cells counted in a ZBI Coulter counter. Percent growth was calculated relative to the controls and the levels of drug activity were expressed as ID50 in moles per liter using probit paper.

[1] = test system: HCT-8 (human colon adenocarcinoma) cells; assay: In vitro activity against HCT-8 human colon adenocarcinoma cells; type: cell-based; settings: HCT-8, 60-65 hours with compound, 37° C., read-out: ID50 against human colon adenocarcinoma
Description: HCT-8 (human colon adenocarcinoma) cells are trypsinized using Trypsin-EDTA. A single cell suspension is achieved by passing the cells through a 26 gauge needle with a 20 cc syringe. A cell suspension is prepared using RPMI 1640+10% FCS+50 μg/ml garamycin with a cell concentration of approximately 30,000 cells/ml. The cell suspension is dispensed in Linbro 24-well plates; 1 ml/well. The plates are incubated for approximately 48 hours at 37° C. in a 5% CO2 atmosphere. At this time test compounds are added in the appropriate concentration. Five μl of the 200 μg/ml stock solution is added to each well in a primary test. Ten μl of the appropriate dilution is added to each well for a titration test. The plates are reincubated an additional 60-65 hours at 37° C. in a 5% CO2 atmosphere. The test is read by lysing the cells using a mix of cationic surfactant, glacial acetic acid and sodium chloride. […] of the lysed cell suspension from each well is added to 8 ml of diluent. Each sample is read on the Coulter counter (ZBI model). The activity of each sample is measured as a percentage of the controls and the data is reported as ID50, that is the molar quantity of drug required to kill 50% of the tumor cells.

B. subtilis = assay: Antibacterial disk zone of inhibition, B. subtilis; type: cell-based, Bacillus subtilis 04555; settings: Bacillus subtilis, read-out: Inhibition Zone diameter; for zone of inhibition at 100 µg/mL: 0.1 mg/ml
Description: (§1) Vegetative bacterial isolates are maintained on agar slants or in liquid media, hereby designated as inoculum media. The cultures are transferred at regular intervals in such media. (See Table IV for the corresponding inoculum media of each culture.) The organisms are generally transferred either onto agar slants or into liquid inoculum media and incubated at 37° C. (at 28° C. with Xanthomonas sp.) overnight (18-20 hours).
(§2) The microbial cells from the overnight agar slants are then scraped off and suspended in saline solution (0.85% NaCl). The microbial concentrations are adjusted to a light transmission of 8.6% using a PerkinElmer Model 35 spectrophotometer (550 nm). For the organisms that are maintained in liquid media, one of two procedures is followed: (1) the culture suspension is first centrifuged at 5000 rpm for five minutes. The pellet is resuspended in 0.85% saline to 8.6% light transmittancy; (2) an aliquot of the culture suspension is to be added directly to the assay medium.
Isolate spore suspensions (Bacillus sp.) are maintained at 4° C. These suspensions serve as the inoculum media for assays.
(§3) A given molten-agar assay medium, maintained in a flask at approximately 45° C., is inoculated with 0.16-10 ml of an appropriate cell or spore suspension per 100 ml of medium. Fifty ml of the inoculated medium is poured into a Bio-Assay dish (A/S Nunc; Gibco Laboratories Catalog Number 240835) and spread evenly across the bottom, then allowed to solidify at room temperature. Each agar dish is inverted and refrigerated until used.
(§4) The compounds or samples to be tested are dissolved in suitable solvents, e.g., alcohols, dimethylsulfoxide, or N,N-dimethylformamide. The samples are generally dissolved so that the final concentration of the solvent is <10%.* The compounds are tested at different concentrations: 3,000; 1,000; 500; 100; and 10 mcg/ml. Paper discs (12.7 mm diameter) saturated with a given concentration of test compound are placed onto the seeded agar dishes with a pair of forceps.
(§5) The disked agar dishes are incubated at 37° C. (28° C. for Xanthamonas sp.) for 18-20 hours. Active compounds show a zone of inhibition around the disc. The diameter of the zone is measured in mm. The zone diameter of active compounds ranges from a minimum of 13.5 mm to as high as 60 mm. The size of the zone diameter generally reflects the activity of the compound: the larger the zone the greater the activity.

B. catarrhalis = assay: Antibacterial disk zone of inhibition, B. catarrhalis; type: cell-based, Branhamella catarrhalis 03596; settings: Moraxella catarrhalis; 0.01 mg/ml; read-out: Inhibition Zone diameter
Description: as §1, §2, §3, §4, §5

M. faecalis = assay: Antibacterial disk zone of inhibition, M. faecalis (as headed); type: cell-based, Streptococcus faecalis 05045; settings: Enterococcus faecalis, read-out: Inhibition Zone diameter
Description: as §1, §2, §3, §4, §5

S. lutea = assay: Antibacterial disk zone of inhibition, S. lutea (as headed); type: cell-based, Micrococcus luteus 05064; settings: Micrococcus luteus, read-out: Inhibition Zone diameter
Description: as §1, §2, §3, §4, §5

X. phaseoli = assay: Antibacterial disk zone of inhibition, X. phaseoli; type: cell-based, Xanthomonas phascoli 06002; settings: Xanthomonas; 3.0 mg/ml; read-out: Inhibition Zone diameter
Description: as §1, §2, §3, §4, §5

With Cc1nc(N)nc(N)c1N1CCN(c2ccc(C(=O)O)cc2)CC1.Cl [Example 1, 4-[4-(2,4-Diamino-6-methyl-5-pyrimidinyl)-1-piperazinyl]benzoic acid hydrochloride] the “T/C × 100” value (P388 Leukemia; 6.25 mg/kg, listed as CH3, H, H, 4-CO2 H, hydrochloride) was 141% and 146%, the “T/C × 100” value (P388 Leukemia; 12.5 mg/kg, listed as CH3, H, H, 4-CO2 H, hydrochloride) was 179% and 227% and the “T/C × 100” value (P388 Leukemia; 25 mg/kg) was 137%. For the same compound, the “T/C × 100” value (P388 Leukemia; 50 mg/kg) was 258% and the “survival rate after 30 days” value (P388 Leukemia; 50 mg/kg) was 3/6.
With Cc1nc(N)nc(N)c1N1CCN(c2ccc(C(=O)N[C@@H](CCC(=O)O)C(=O)O)cc2)CC1 [Example 3, N-[4-[4-(2,4-diamino-6-methyl-5-pyrimidinyl)-1-piperazinyl]benzoyl]-L-glutamic acid] the “T/C × 100” value (P388 Leukemia; 6.25 mg/kg, listed as CH3, H, H, 4-CONHCH(CO2 H)CH2 CH2 CO2 H) was 144% and 137%, the “T/C × 100” value (P388 Leukemia; 12.5 mg/kg, listed as CH3, H, H, 4-CONHCH(CO2 H)CH2 CH2 CO2 H) was 155% and 168% and the “T/C × 100” value (P388 Leukemia; 25 mg/kg, listed as CH3, H, H, 4-CONHCH(CO2 H)CH2 CH2 CO2 H) was 172% and 167%. The “T/C × 100” value (P388 Leukemia; 50 mg/kg) was 222% and the “T/C × 100” value (P388 Leukemia; 50 mg/kg, listed as CH3, H, H, 4-CONHCH(CO2 H)CH2 CH2 CO2 H) was 188%.
Cc1nc(N)nc(N)c1N1CCN(c2ccc([N+](=O)[O-])cc2)CC1 [Example 4, 6-Methyl-5-[4-(4-nitrophenyl)-1-piperazinyl]-2,4-pyrimidinediamine, hydrate (10:1)] was tested, and the IC50 (L1210 cells) was 15 nM and the IC50 [1] was greater than 1000 nM.
Compound CCOC(=O)c1ccc(N2CCN(c3c(C)nc(N)nc3N)CC2)cc1 [Example 6, 4-[4-(2,4-Diamino-6-methyl-5-pyrimidinyl)-1-piperazinyl]benzoic acid, ethyl ester] has an IC50 (L1210 cells) of 5 nM and an IC50 [1] of 49 nM.
CNC(=O)c1ccc(N2CCN(c3c(C)nc(N)nc3N)CC2)cc1 [Example 7, 4-[4-(2,4-Diamino-6-methyl-5-pyrimidinyl)-1-piperazinyl]-N-methyl benzamide, hydrate (100:45)] was tested, and the IC50 (L1210 cells) was 2.5 nM and the IC50 [1] was 67 nM.
COC(=O)CNC(=O)c1ccc(N2CCN(c3c(C)nc(N)nc3N)CC2)cc1 [Example 8, N-[4-[4-(2,4-Diamino-6-methyl-5-pyrimidinyl)-1-piperazinyl]benzoyl]glycine,methyl ester] was tested, and the IC50 (L1210 cells) was 17 nM and the IC50 [1] was 800 nM.
With CCc1nc(N)nc(N)c1N1CCN(c2ccc(C#N)cc2)CC1 [Example 10, 5-[4-(4-cyanophenyl)-1-piperazinyl]-6-ethyl-2,4-pyrimidinediamine] the IC50 (L1210 cells) was 7.7 nM, the IC50 [1] was 89 nM and the “T/C × 100” value (P388 Leukemia; 50 mg/kg) was 126%.
CCCc1nc(N)nc(N)c1N1CCN(c2ccc(C#N)cc2)CC1 [Example 14, 5-[4-(4-cyanophenyl)-1-piperazinyl]-6-propyl-2,4-pyrimidinediamine] showed an IC50 (L1210 cells) of 8.9 nM and an IC50 [1] of 120 nM.
For Cc1nc(N)nc(N)c1N1CCN(c2ccccc2)CC1 [Example 20, 6-Methyl-5-(4-phenyl-1-piperazinyl)-2,4-pyrimidinediamine, hydrochloride (5:1)], the IC50 (L1210 cells) was 150 nM.
Cc1nc(N)nc(N)c1N1CCN(c2ccc(Cl)cc2)CC1 [Example 21, 5-[4-(4-chlorophenyl)-1-piperazinyl]-6-methyl-2,4-pyrimidinediamine] was tested, and the IC50 (L1210 cells) was 28 nM and the IC50 [1] was 350 nM.
Compound Cc1nc(N)nc(N)c1N1CCN(c2ccc(N)cc2)CC1 [Example 22] has an IC50 (L1210 cells) of 80 nM.
For CCOC(=O)CCC(NC(=O)c1ccc(N2CCN(c3c(N)nc(N)nc3CC)CC2)cc1)C(=O)OCC (stereo not drawn) [drawing 10], the IC50 (L1210 cells) was 3.2 nM.
For CCc1nc(N)nc(N)c1N1CCN(c2ccc(C(=O)NC(CCC(=O)O)C(=O)O)cc2)CC1 (stereo not drawn) [drawing 11], the IC50 (L1210 cells) was 2000 nM.
CCCc1nc(N)nc(N)c1N1CCN(c2ccc(C(=O)NC(CCC(=O)O)C(=O)O)cc2)CC1 (stereo not drawn) [drawing 13] showed an IC50 (L1210 cells) of 7.5 nM.
Compound CCOC(=O)CCC(NC(=O)c1ccc(N2CCN(c3c(N)nc(N)nc3CC)CC2)cc1)C(=O)OCC (stereo not drawn) [drawing 15] has an IC50 [1] of 26 nM.
Compound CCc1nc(N)nc(N)c1N1CCN(c2ccc(C(=O)NC(CCC(=O)O)C(=O)O)cc2)CC1 (stereo not drawn) [drawing 16] has an IC50 [1] of 120 nM.
CCCc1nc(N)nc(N)c1N1CCN(c2ccc(C(=O)NC(CCC(=O)O)C(=O)O)cc2)CC1 (stereo not drawn) [drawing 17] showed an IC50 [1] of 85 nM.
With CCOC(=O)CCC(NC(=O)c1ccc(N2CCN(c3c(N)nc(N)nc3CC)CC2)cc1)C(=O)OCC (stereo not drawn) [drawing 19] the “T/C × 100” value (P388 Leukemia; 6.25 mg/kg) was 163%, the “T/C × 100” value (P388 Leukemia; 12.5 mg/kg) was 183% and the “T/C × 100” value (P388 Leukemia; 25 mg/kg) was 241%. For the same compound, the “survival rate after 30 days” value (P388 Leukemia; 25 mg/kg) was 2/6, the “T/C × 100” value (P388 Leukemia; 50 mg/kg) was 258% and the “survival rate after 30 days” value (P388 Leukemia; 50 mg/kg) was 5/6.
Cc1nc(N)nc(N)c1N1CCN(c2ccc(C(=O)N[C@@H](CCC(=O)O)C(=O)O)cc2)CC1 [drawing 21] was tested, and the zone of inhibition at 10 µg/mL (B. subtilis; 0.01 mg/ml) was 22 mm, the zone of inhibition at 10 µg/mL (B. catarrhalis) was 25 mm and the zone of inhibition at 3000 µg/mL (M. faecalis; 3.0 mg/ml) was 0 mm. It also gave a zone of inhibition at 3000 µg/mL (S. lutea; 3.0 mg/ml) of 0 mm and a zone of inhibition at 3000 µg/mL (X. phaseoli) of 0 mm.
CCOC(=O)CCC(NC(=O)c1ccc(N2CCN(c3c(N)nc(N)nc3CC)CC2)cc1)C(=O)OCC (stereo not drawn) [drawing 22] was tested, and the zone of inhibition at 100 µg/mL (B. subtilis) was 19 mm, the zone of inhibition at 10 µg/mL (B. catarrhalis) was 20 mm and the zone of inhibition at 10 µg/mL (M. faecalis; 0.01 mg/ml) was 15 mm. It also gave a zone of inhibition at 10 µg/mL (S. lutea; 0.01 mg/ml) of 19 mm and a zone of inhibition at 3000 µg/mL (X. phaseoli) of 3 mm.
CCc1nc(N)nc(N)c1N1CCN(c2ccc(C(=O)NC(CCC(=O)O)C(=O)O)cc2)CC1 (stereo not drawn) [drawing 23] was tested, and the zone of inhibition at 100 µg/mL (B. subtilis) was 20 mm, the zone of inhibition at 10 µg/mL (B. catarrhalis) was 14 mm and the zone of inhibition at 100 µg/mL (M. faecalis; 0.1 mg/ml) was 14 mm. For the same compound, the zone of inhibition at 500 µg/mL (S. lutea; 0.5 mg/ml) was 14 mm and the zone of inhibition at 3000 µg/mL (X. phaseoli) was 15 mm.
